{"source": "ChEMBL document CHEMBL1201862", "about": "“PubChem BioAssay data set” (2004)", "key": {"[1]": {"test": "microbe, parasite or virus in culture", "assay_type": "functional", "settings": "Mycobacterium tuberculosis"}, "[2]": {"test": "NIH-3T3 fibroblast cytotoxicity, dose response, cytotoxicity control, cell-based, fluorescence, Alamar Blue, secondary assay (AID 2327);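 also: NIH-3T3 mouse fibroblasts cultured with fluconazole at 8 µg/mL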", "assay_type": "functional"}, "[3]": {"test": "fluconazole-exposed Candida albicans growth modulators – fluorescence, retest, confirmation (AID 2467)", "assay_type": "functional, cell-based"}, "[4]": {"test_system": "INS1", "test": "INS-1E survival protection against cytokine death – cell-based, luminescence, retest, dose response (AID 449756);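 also: cell death triggered by IL-1 beta plus TNF-alpha plus IFN-gamma mixture; protective hits raise ATP signal compared with cytokine alone wells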", "assay_type": "functional", "settings": "Rattus norvegicus"}, "[5]": {"test": "luciferase reporter signal suppression in cells – H4 neuroglioma cells, luminescence, dose response (AID 1990)", "assay_type": "functional, cell-based"}, "[6]": {"test": "alpha-synuclein stem-loop luciferase translation blockers – H4 neuroglioma cells, luminescence, confirmation (AID 1988)", "assay_type": "functional, cell-based"}, "[7]": {"test": "Luminescence Cell-Based Dose Response HTS to Identify Inhibitors of 5'UTR Stem-Loop Driven Prion Protein mRNA Translation in H4 Neuroglioblastoma Cells. [Related pubchem assays: 1827 (Project Summary), 1813 (Primary HTS)]", "assay_type": "functional"}, "[8]": {"target": "T1, Heat shock factor protein 1 (Mus musculus, UniProt P38532)", "T1 sequence (P38532 whole entry)": "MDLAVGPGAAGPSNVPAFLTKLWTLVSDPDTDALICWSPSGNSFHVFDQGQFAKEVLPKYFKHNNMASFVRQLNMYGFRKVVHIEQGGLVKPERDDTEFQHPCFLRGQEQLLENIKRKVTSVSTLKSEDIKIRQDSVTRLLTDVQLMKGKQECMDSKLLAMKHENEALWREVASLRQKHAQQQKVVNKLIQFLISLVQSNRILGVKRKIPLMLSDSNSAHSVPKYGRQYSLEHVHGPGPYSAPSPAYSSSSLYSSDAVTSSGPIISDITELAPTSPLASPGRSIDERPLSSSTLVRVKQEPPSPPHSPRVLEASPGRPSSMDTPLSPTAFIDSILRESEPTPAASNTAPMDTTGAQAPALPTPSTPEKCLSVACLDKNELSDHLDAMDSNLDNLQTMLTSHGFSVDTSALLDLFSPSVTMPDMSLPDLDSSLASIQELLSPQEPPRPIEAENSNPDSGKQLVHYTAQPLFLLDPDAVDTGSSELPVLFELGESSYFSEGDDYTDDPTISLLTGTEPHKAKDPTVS", "test": "enhancement of HSF1-driven luciferase signal – cell-based, NIH3T3, luminescence, dose retest, confirmation (AID 435004);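 also: stress induced by proteasome inhibitor MG132 added 30 min after compound; actives raise luminescence as potentiators of the MG132 stress response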", "assay_type": "functional"}, "[9]": {"target": "T2, Rac GTPase-activating protein 1 (Homo sapiens, UniProt Q9H0H5)", "T2 sequence (Q9H0H5 whole entry)": "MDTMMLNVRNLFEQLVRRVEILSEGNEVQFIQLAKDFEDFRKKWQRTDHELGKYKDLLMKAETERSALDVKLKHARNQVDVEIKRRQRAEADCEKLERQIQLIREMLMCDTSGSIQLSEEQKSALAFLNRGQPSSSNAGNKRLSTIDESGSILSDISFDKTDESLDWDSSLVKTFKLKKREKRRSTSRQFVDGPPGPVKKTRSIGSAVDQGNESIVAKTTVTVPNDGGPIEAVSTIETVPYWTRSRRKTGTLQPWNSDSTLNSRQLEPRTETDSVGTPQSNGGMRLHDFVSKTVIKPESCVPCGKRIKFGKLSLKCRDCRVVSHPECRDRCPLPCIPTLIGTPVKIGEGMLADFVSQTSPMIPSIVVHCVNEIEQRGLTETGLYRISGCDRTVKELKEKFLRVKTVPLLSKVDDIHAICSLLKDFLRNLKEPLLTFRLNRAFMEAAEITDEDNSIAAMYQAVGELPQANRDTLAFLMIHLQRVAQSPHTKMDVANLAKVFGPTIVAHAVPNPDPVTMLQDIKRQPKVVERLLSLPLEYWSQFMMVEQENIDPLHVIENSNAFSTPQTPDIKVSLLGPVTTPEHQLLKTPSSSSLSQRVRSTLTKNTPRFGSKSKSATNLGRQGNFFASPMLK", "test": "blockers of MgcRacGAP-driven Rac1 GTP hydrolysis – biochemical, ADP Hunter fluorescence, primary and confirmatory, confirmation (AID 624330)", "assay_type": "functional"}, "[10]": {"test": "NIH3T3 cell viability loss – ATP luminescence, mouse fibroblasts, counter-screen, dose response (AID 2010);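 also: cells exposed to compound for about 90 hours before reading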", "assay_type": "functional, cell-based"}, "[11]": {"test": "Trypanosoma cruzi growth suppression in host cells – NIH3T3 host cells, beta-gal luminescence, confirmation (AID 2044);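 also: luminescent beta-galactosidase reporter signal from transgenic T. cruzi replicating inside host cells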", "assay_type": "functional, cell-based"}, "[12]": {"target": "FAD-linked sulfhydryl oxidase ALR (Homo sapiens, UniProt P55789)", "sequence (P55789 whole entry)": "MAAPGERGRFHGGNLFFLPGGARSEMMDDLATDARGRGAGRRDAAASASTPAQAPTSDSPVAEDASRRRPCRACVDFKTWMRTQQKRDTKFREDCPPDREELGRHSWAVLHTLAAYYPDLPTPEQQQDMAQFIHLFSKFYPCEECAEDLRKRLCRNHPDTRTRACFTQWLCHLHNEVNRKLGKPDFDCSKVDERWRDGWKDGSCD", "test": "ALR-catalysed DTT oxidation blockers – biochemical, H2O2 detection, luminescence, cherry-pick, dose response (AID 493248)"}}, "note": "Active and inactive are the calls of the source. Rule as the data show it, for most assays here: actives have a measured EC50 and inactives only a lower limit.", "data": [{"smiles": "O=C1C(=CNCCN2CCNCC2)C(=O)N(C2CCCCC2)C(=O)N1C1CCCCC1", "values": [{"measurement": "CC50", "setting": "[1]", "value": "33.5 µM (active)"}]}, {"smiles": "COCCNC(=O)NC12CC3CC(CC(C3)C1)C2", "values": [{"measurement": "EC50", "setting": "[2]", "value": "> 160 µM (inconclusive)"}, {"measurement": "EC50", "setting": "[3]", "value": "> 38 µM (not active)"}]}, {"smiles": "O=C(NCCc1ccccc1)[C@@H]1CC=C[C@@H]2CCN(Cc3ccc(Cl)c(Cl)c3)C(=O)[C@@H]21", "values": [{"measurement": "CC50", "setting": "[1]", "value": "34.4 µM (active)"}, {"measurement": "AC50", "setting": "[4]", "value": "6.35 µM (active)"}]}, {"smiles": "Cc1ccc(S(=O)(=O)N2CCC(=O)N(C(COCc3ccc(Cl)cc3)Cc3ccccc3)CC2)cc1", "note": "(configuration not stated)", "values": [{"measurement": "EC50", "setting": "[5]", "value": "> 120 µM (not active)"}, {"measurement": "EC50", "setting": "[6]", "value": "36.4 µM (active)"}, {"measurement": "EC50", "setting": "[7]", "value": "39.1 µM (active)"}]}, {"smiles": "Cc1ccc(C)c(CN2C(=O)COc3ccccc32)c1", "values": [{"measurement": "EC50", "setting": "[8]", "value": "> 260 µM (inactive)"}]}, {"smiles": "CCN1CCN(CC(=O)Nc2ccc(C)c(Br)c2)CC1", "values": [{"measurement": "IC50", "setting": "[9]", "value": "95.7 µM (active)"}]}, {"smiles": "CCc1ccccc1N=C(S)NNC(=O)c1ccccc1Cl", "values": [{"measurement": "EC50", "setting": "[2]", "value": "> 150 µM (inactive)"}, {"measurement": "EC50", "setting": "[3]", "value": "1.93 µM (active)"}]}, {"smiles": "CCCCNC(=O)/C(=C\\c1ccc([N+](=O)[O-])o1)NC(=O)c1ccccc1", "values": [{"measurement": "EC50", "setting": "[10]", "value": "> 60 µM (inconclusive)"}, {"measurement": "EC50", "setting": "[11]", "value": "0.863 µM (active)"}, {"measurement": "EC50", "setting": "[2]", "value": "> 150 µM (inactive)"}, {"measurement": "EC50", "setting": "[3]", "value": "0.265 µM (active)"}]}, {"smiles": "Cc1nc(SCc2cccc(F)c2)nc(O)c1C#N", "values": [{"measurement": "AC50", "setting": "[12]", "value": "9.69 µM (active)"}]}, {"smiles": "O=S(=O)(Nc1ccc(N2CCCCC2)cc1)c1ccc(F)c(F)c1", "values": [{"measurement": "AC50", "setting": "[12]", "value": "4.17 µM (active)"}]}, {"smiles": "S=C(NC1CCCCC1)NC1CC2C=CC1C2", "note": "(configuration not stated)", "values": [{"measurement": "EC50", "setting": "[8]", "value": "> 260 µM (inactive)"}]}, {"smiles": "COc1cc(CC(=O)OCC(=O)Nc2ccc(N(C)C)cc2)cc(OC)c1OC", "values": [{"measurement": "IC50", "setting": "[9]", "value": "53.3 µM (active)"}]}, {"smiles": "CN(C)c1cc(NC(=O)CN2CCCC2)c2ccccc2n1", "values": [{"measurement": "IC50", "setting": "[9]", "value": "41.6 µM (active)"}]}, {"smiles": "COc1ccc(C2CC(=O)c3cnc(N4CCc5ccccc54)nc3C2)cc1OC", "note": "(configuration not stated)", "values": [{"measurement": "EC50", "setting": "[8]", "value": "> 260 µM (inactive)"}]}, {"smiles": "O=C(Cn1cccn1)N1CCCC(Nc2ccc(F)c(F)c2)C1", "note": "(configuration not stated)", "values": [{"measurement": "AC50", "setting": "[12]", "value": "1.92 µM (active)"}]}, {"smiles": "COc1cc(C(C)=NNC(=O)c2ccncc2)ccc1O", "values": [{"measurement": "IC50", "setting": "[9]", "value": "49.6 µM (active)"}]}, {"smiles": "CCN(CCNC(=O)C1CCN(S(=O)(=O)CC)CC1)c1ccccc1", "values": [{"measurement": "AC50", "setting": "[12]", "value": "0.013 µM (active)"}]}, {"smiles": "Cc1ccn(Cc2nnc(S)n2Cc2ccccc2)n1", "values": [{"measurement": "AC50", "setting": "[12]", "value": "8.59 µM (active)"}]}, {"smiles": "Oc1ccc(/C(Cc2ccccn2)=N\\Nc2ccccc2)c(O)c1", "values": [{"measurement": "AC50", "setting": "[12]", "value": "0.332 µM (active)"}]}, {"smiles": "O=C1CSC(=S)N1/N=C/c1cccc(C(F)(F)F)c1", "values": [{"measurement": "EC50", "setting": "[8]", "value": "> 260 µM (inactive)"}]}, {"smiles": "C/C(=N/NC(=O)C1CCN(S(=O)(=O)c2ccc(C)cc2)CC1)c1cccc([N+](=O)[O-])c1", "values": [{"measurement": "EC50", "setting": "[5]", "value": "22.9 µM (active)"}, {"measurement": "EC50", "setting": "[6]", "value": "48 µM (active)"}, {"measurement": "EC50", "setting": "[7]", "value": "71 µM (active)"}]}, {"smiles": "C/C(=N/NC(=O)c1ccccc1O)c1ccc(N2C(=O)C3CCCCC3C2=O)cc1", "note": "(configuration not stated)", "values": [{"measurement": "EC50", "setting": "[2]", "value": "> 160 µM (inactive)"}, {"measurement": "EC50", "setting": "[3]", "value": "> 38 µM (not active)"}]}, {"smiles": "COc1cc(/C=N/NC(=O)CN(Cc2ccco2)S(=O)(=O)c2ccccc2)ccc1O", "values": [{"measurement": "AC50", "setting": "[12]", "value": "1.13 µM (active)"}, {"measurement": "IC50", "setting": "[9]", "value": "40 µM (active)"}]}, {"smiles": "CN(C)c1ccc(/C=N/O)cc1", "values": [{"measurement": "IC50", "setting": "[9]", "value": "21.8 µM (active)"}]}, {"smiles": "C=Cc1ncc(OC)c2c1[nH]c1ccccc12", "values": [{"measurement": "EC50", "setting": "[8]", "value": "9.2 µM (active)"}]}]}
